Laboratory results taken from patent publication US11013715B2, “Nanoemulsion hydrophobic substances” (Vertosa, Inc., priority 2018, dated 2021).
Like-named read-outs stand apart in the source and are kept apart here.

Tests used:
[1] = cited from earlier work
[2] = Emulsion droplet average size by Dynamic Light Scattering; assay type: physicochemical; conditions: named Span as co-surfactant; 1 g cannabinoid, 0.625 g olive oil, 3.75 g Tween 80, Span:Tween 80 1:6; 45 mL; 80% amplitude sonication until plateau; DLS
Experimental: Droplet size change was monitored by DLS time wise.
Sometimes, measuring concentrated nano-emulsion (>10 mg/g) by Dynamic Light Scattering could have misleading data. Since at higher concentration, the emulsion droplets pack close to each other and may generate unreal scattering pattern. […] While the nanosized droplets are a preferred embodiment of the instant application, larger sized droplets are contemplated as well. Sometimes, larger size emulsion is generated by design to achieve desirable effects.
As is generally known in the art, droplet sizes and their distribution may affect the human feeling on flavor. On one side, nano-size can amplify or even alter the taste, something tastes plain at bulk may taste bitter or sour in nano-scale. On the other side, taste buds on tongue tend to have different time reactions to different sizes of particles. The smaller droplets can quickly absorb at the gap of the tasting buds, thus blocking the touching/feeling from bigger droplets. The droplet size can be well controlled by how much energy is put into the liquid system, which can be controlled either by amplitude % of the sonicator or by how long the liquid is being sonicated at certain amplitude %.
The sonicator continuously calibrates itself to ensure consistent output. A commercially available sonicator may be used to make the compositions disclosed herein. The wattage of such a sonicator may vary from 250 W to about 800 W, and more preferably between about 350 W to about 650 W, and most preferably between 450 W to about 550 W. The output energy depends on the viscosity of the emulsion and also temperature. […] Processing amplitude are adjustable, and it is within a linear relation with intensity. And process time can also be adjustable, which will determine total input energy under certain intensity. Since each formula may need different amount of energy to get into nanosize, we usually monitor droplet size change with Dynamic Light Scattering over production time to determine when to stop the sonication.
1 g of cannabis and 5 g of the Formula 1 are added to a 100 ml beaker, and mechanically stirred under controlled heat (<60° C.), until it is well mixed. The cannabis oil may be a full plant extract or a high pure distillate. Water is added to the mixture, the amount of water is determined by the final targeting concentration. The mixture is kept stirring until a homogenous milky coarse emulsion is formed.

[3] = Table 1, HLB=20*Mh/M, scale 0 to 20
[4] = Span surfactants, Example 9 table

Substance	HLB [1, 3]	Final Emulsion droplet average size (nm) [2] [nm]	HLB [1, 4]
Tween 81	10		
Span 85		876	
Polyglyceryl-6 Stearate	9		
Span 80		387	4.3
Span 40		245	6.7
Span 20		91	
Span 60		316	4.7
polyglyceryl-6 oleate	9		
Span 83		560	
Span 120		302	4.7
